What was measured:
NF-κB [1] = assay: NF-κB nuclear membrane translocation, EMSA, LPS-treated NR8383 cells; format: cell-based; settings: Rattus norvegicus; 10,000 nM; LPS 1 μg/ml; NR8383 cells; 6 hours
Description: Experiments measuring test agents effect on NF-κB nuclear membrane translocation were performed with NR8383 cells, which are transformed rat alveolar macrophages. […] In addition, some compounds were tested at doses of 10 and 30 μM. Untreated control cells and cells treated with LPS alone were tested in each experiment. Cells were harvested 6 hours after treatment. Nuclear proteins were extracted, frozen and quantified using the Bradford assay. Electrophoretic mobility shift assays (EMSA) were subsequently analyzed using a radiolabeled NF-κB probe. Nuclear proteins were reacted with the radiolabeled probe, run on a 5% polyacrylamide gel, and subjected to autoradiography. Specificity of protein binding for the NF-κB binding site was assayed by cold and nonspecific competition using the LPS treated sample in each experiment. All EMSA were duplicated at least once to verify results. Laser densitometry of NF-κB bands was done on autoradiographs to quantify NF-κB binding activity.

NF-κB [2] = settings: cited from earlier work
PGE2 production = settings: stimulated macrophages; read-out: Inhibition of PGE2 production IC50; cited from earlier work
LTB4 production = settings: stimulated macrophages; read-out: Inhibition of LTB4 production IC50; cited from earlier work
platelet aggregation = settings: read-out: AA-induced platelet aggregation (AAIPA) IC50; cited from earlier work
platelet function = settings: cited from earlier work

For `S=C(S)N1CCCC1` [Pyrrolidone dithiocarbamate (PDTC), Pyrrolidone dithiocarbamate], the inhibition at 10 µM (NF-κB [1]) is given as 50% and the “Inhibition of H2O2 and extracellular cytokine-induced activation of NF-κB” value (NF-κB [2]) is given as “inhibit both the H2 O2 and extracellular cytokine-induced activation of NF-κB in a concentration dependent manner”.

In the case of `CCCCC/C=C\C/C=C\C/C=C\C/C=C\CC[C@@H]1OC(=O)C(O)=C1O` [(S)-3,4-dihydroxy-5[(all Z)-3,6,9,12-octadecatraenyl]-2 (5H)-furanone], the IC50 (PGE2 production) is listed as 20 µM, the IC50 (LTB4 production) is listed as 20 µM and the IC50 (platelet aggregation) is listed as < 10 µM.

In the case of `O=C1OC(c2ccc(Cl)cc2)C(O)=C1O` (stereo not drawn) [CHTA, 4-(4-chlorophenyl)-2-hydroxytetronic acid], the “Inhibition of platelet function” value (platelet function) is listed as “inhibits platelet function by a similar mechanism, involving arachidonic acid release”.

From patent US6262073A, “Pharmaceutical methods of use of 5-substituted and 5,5 disubstituted-3,4-dihydroxy-2(5H)-furanones” (Oxis International Inc., priority 2000, dated 2001)
